Data reported in ChEMBL document CHEMBL1671627, “Increasing trends in antimicrobial resistance among clinically important anaerobes and Bacteroides fragilis isolates causing nosocomial infections: emerging resistance to carbapenems” (2008).
≈ marks a conversion by molar mass, not a printed value.

Legend:
[1] = tested on: Clostridium tertium; experiment: Antibacterial activity against beta-lactamase producing Clostridium tertium by CLSI agar dilution method; assay type: functional
[2] = tested on: Clostridium septicum; experiment: Antibacterial activity against beta-lactamase producing Clostridium septicum by CLSI agar dilution method; assay type: functional
[3] = tested on: Fusobacterium necrophorum; experiment: Antibacterial activity against Fusobacterium necrophorum assessed as susceptible isolates by CLSI agar dilution method; assay type: functional
[4] = tested on: Bacteroides uniformis; experiment: Antibacterial activity against beta-lactamase producing Bacteroides uniformis assessed as susceptible isolates by CLSI agar dilution method; assay type: functional
[5] = tested on: Clostridium perfringens; experiment: microbe, parasite or virus in culture; assay type: functional
[6] = tested on: Bacteroides fragilis; experiment: Antibacterial activity against Bacteroides fragilis by CLSI agar dilution method; assay type: functional
[7] = tested on: Bacteroides uniformis; experiment: Antibacterial activity against beta-lactamase producing Bacteroides uniformis assessed as resistant isolates by CLSI agar dilution method; assay type: functional
[8] = tested on: Prevotella buccae; experiment: Antibacterial activity against Prevotella buccae assessed as susceptible isolates by CLSI agar dilution method; assay type: functional, Segatella buccae
[9] = tested on: Bacteroides caccae; experiment: Antibacterial activity against beta-lactamase producing Bacteroides caccae assessed as susceptible isolates by CLSI agar dilution method; assay type: functional
[10] = tested on: Fusobacterium varium; experiment: Antibacterial activity against Fusobacterium varium assessed as susceptible isolates by CLSI agar dilution method; assay type: functional
[11] = tested on: Prevotella intermedia; experiment: Antibacterial activity against Prevotella intermedia assessed as resistant isolates by CLSI agar dilution method; assay type: functional
[12] = tested on: Fusobacterium varium; experiment: Antibacterial activity against Fusobacterium varium by CLSI agar dilution method; assay type: functional
[13] = tested on: Prevotella bivia; experiment: Antibacterial activity against Prevotella bivia assessed as susceptible isolates by CLSI agar dilution method; assay type: functional
[14] = tested on: Bacteroides thetaiotaomicron; experiment: Antibacterial activity against beta-lactamase producing Bacteroides thetaiotaomicron by CLSI agar dilution method; assay type: functional
[15] = tested on: Clostridium paraputrificum; experiment: Antibacterial activity against beta-lactamase producing Clostridium paraputrificum by CLSI agar dilution method; assay type: functional
[16] = tested on: Veillonella parvula; experiment: Antibacterial activity against Veillonella parvula by CLSI agar dilution method; assay type: functional
[17] = tested on: Prevotella intermedia; experiment: Antibacterial activity against Prevotella intermedia assessed as susceptible isolates by CLSI agar dilution method; assay type: functional
[18] = tested on: Phocaeicola vulgatus; experiment: Antibacterial activity against beta-lactamase producing Bacteroides vulgatus assessed as susceptible isolates by CLSI agar dilution method; assay type: functional
[19] = tested on: Fusobacterium nucleatum; experiment: Antibacterial activity against Fusobacterium nucleatum by CLSI agar dilution method; assay type: functional
[20] = tested on: Bacteroides caccae; experiment: Antibacterial activity against beta-lactamase producing Bacteroides caccae assessed as resistant isolates by CLSI agar dilution method; assay type: functional
[21] = tested on: Bacteroides thetaiotaomicron; experiment: Antibacterial activity against beta-lactamase producing Bacteroides thetaiotaomicron assessed as resistant isolates by CLSI agar dilution method; assay type: functional
[22] = tested on: Prevotella melaninogenica; experiment: Antibacterial activity against Prevotella melaninogenica by CLSI agar dilution method; assay type: functional
[23] = tested on: Fusobacterium necrophorum; experiment: Antibacterial activity against Fusobacterium necrophorum by CLSI agar dilution method; assay type: functional
[24] = tested on: Prevotella intermedia; experiment: Antibacterial activity against Prevotella intermedia by CLSI agar dilution method; assay type: functional
[25] = tested on: Bacteroides caccae; experiment: Antibacterial activity against beta-lactamase producing Bacteroides caccae by CLSI agar dilution method; assay type: functional
[26] = tested on: Prevotella melaninogenica; experiment: Antibacterial activity against Prevotella melaninogenica assessed as resistant isolates by CLSI agar dilution method; assay type: functional
[27] = tested on: Fusobacterium nucleatum; experiment: Antibacterial activity against Fusobacterium nucleatum assessed as susceptible isolates by CLSI agar dilution method; assay type: functional
[28] = tested on: Fusobacterium mortiferum; experiment: Antibacterial activity against Fusobacterium mortiferum by CLSI agar dilution method; assay type: functional
[29] = tested on: Fusobacterium nucleatum; experiment: Antibacterial activity against Fusobacterium nucleatum assessed as resistant isolates by CLSI agar dilution method; assay type: functional
[30] = tested on: Phocaeicola vulgatus; experiment: Antibacterial activity against beta-lactamase producing Bacteroides vulgatus assessed as resistant isolates by CLSI agar dilution method; assay type: functional
[31] = tested on: Prevotella melaninogenica; experiment: Antibacterial activity against Prevotella melaninogenica assessed as susceptible isolates by CLSI agar dilution method; assay type: functional
[32] = tested on: Bacteroides fragilis; experiment: Antibacterial activity against Bacteroides fragilis assessed as susceptible isolates by CLSI agar dilution method; assay type: functional
[33] = tested on: Fusobacterium mortiferum; experiment: Antibacterial activity against Fusobacterium mortiferum assessed as resistant isolates by CLSI agar dilution method; assay type: functional
[34] = tested on: Prevotella bivia; experiment: Antibacterial activity against Prevotella bivia assessed as resistant isolates by CLSI agar dilution method; assay type: functional
[35] = tested on: Prevotella buccae; experiment: Antibacterial activity against Prevotella buccae by CLSI agar dilution method; assay type: functional; conditions: Segatella buccae
[36] = tested on: Phocaeicola vulgatus; experiment: Antibacterial activity against beta-lactamase producing Bacteroides vulgatus by CLSI agar dilution method; assay type: functional
[37] = tested on: Bacteroides thetaiotaomicron; experiment: Antibacterial activity against beta-lactamase producing Bacteroides thetaiotaomicron assessed as susceptible isolates by CLSI agar dilution method; assay type: functional
[38] = tested on: Bacteroides fragilis; experiment: Antibacterial activity against Bacteroides fragilis assessed as resistant isolates by CLSI agar dilution method; assay type: functional
[39] = tested on: Fusobacterium varium; experiment: Antibacterial activity against Fusobacterium varium assessed as resistant isolates by CLSI agar dilution method; assay type: functional
[40] = tested on: Peptoniphilus asaccharolyticus; experiment: Antibacterial activity against beta-lactamase producing Peptoniphilus asaccharolyticus by CLSI agar dilution method; assay type: functional
[41] = tested on: Bacteroides uniformis; experiment: Antibacterial activity against beta-lactamase producing Bacteroides uniformis by CLSI agar dilution method; assay type: functional
[42] = tested on: Fusobacterium necrophorum; experiment: Antibacterial activity against Fusobacterium necrophorum assessed as resistant isolates by CLSI agar dilution method; assay type: functional
[43] = tested on: Parvimonas micra; experiment: Antibacterial activity against beta-lactamase producing Micromonas micros by CLSI agar dilution method; assay type: functional
[44] = tested on: Prevotella bivia; experiment: Antibacterial activity against Prevotella bivia by CLSI agar dilution method; assay type: functional
[45] = tested on: Finegoldia magna; experiment: Antibacterial activity against beta-lactamase producing Finegoldia magna by CLSI agar dilution method; assay type: functional
[46] = tested on: Prevotella buccae; experiment: Antibacterial activity against Prevotella buccae assessed as resistant isolates by CLSI agar dilution method; assay type: functional, Segatella buccae
[47] = tested on: Fusobacterium mortiferum; experiment: Antibacterial activity against Fusobacterium mortiferum assessed as susceptible isolates by CLSI agar dilution method; assay type: functional
[48] = tested on: Peptostreptococcus anaerobius; experiment: Antibacterial activity against beta-lactamase producing Peptostreptococcus anaerobius by CLSI agar dilution method; assay type: functional

Q: For `CC1(C)S[C@@H]2[C@H](NC(=O)Cc3ccccc3)C(=O)N2[C@H]1C(=O)O` [PENICILLIN G], which MIC50 [1] is on record?
A: 0.25 µg/mL (≈ 0.748 µM)

Q: What about the MIC90 [1] of the same molecule?
A: 4 µg/mL (≈ 12 µM)

Q: And the MIC50 [2]?
A: 0.25 µg/mL (≈ 0.748 µM)

Q: What about the MIC90 [2] of the same molecule?
A: 4 µg/mL (≈ 12 µM)

Q: What about the Activity [3] of the same molecule?
A: 85%

Q: What about the Activity [4] of the same molecule?
A: 0%

Q: What about the MIC50 [5] of the same molecule?
A: 0.25 µg/mL (≈ 0.748 µM)

Q: And the MIC90 [5]?
A: 4 µg/mL (≈ 12 µM)

Q: What about the MIC50 [6] of the same molecule?
A: 16 µg/mL (≈ 47.8 µM)

Q: What about the MIC90 [6] of the same molecule?
A: > 128 µg/mL

Q: What about the Activity [7] of the same molecule?
A: 100%

Q: What about the Activity [8] of the same molecule?
A: 6%

Q: And the Activity [9]?
A: 0%

Q: What about the Activity [10] of the same molecule?
A: 85%

Q: And the Activity [11]?
A: 95%

Q: And the MIC50 [12]?
A: 0.25 µg/mL (≈ 0.748 µM)

Q: What about the MIC90 [12] of the same molecule?
A: 1 µg/mL (≈ 2.99 µM)

Q: And the Activity [13]?
A: 6%

Q: What about the MIC50 [14] of the same molecule?
A: 16 µg/mL (≈ 47.8 µM)

Q: And the MIC90 [14]?
A: > 128 µg/mL

Q: What about the MIC50 [15] of the same molecule?
A: 0.25 µg/mL (≈ 0.748 µM)

Q: What about the MIC90 [15] of the same molecule?
A: 4 µg/mL (≈ 12 µM)

Q: What about the MIC [16] of the same molecule?
A: 0.06 µg/mL (≈ 0.179 µM)

Q: And the Activity [17]?
A: 6%

Q: And the Activity [18]?
A: 0%

Q: What about the MIC50 [19] of the same molecule?
A: 0.25 µg/mL (≈ 0.748 µM)

Q: And the MIC90 [19]?
A: 1 µg/mL (≈ 2.99 µM)

Q: And the Activity [20]?
A: 100%

Q: What about the Activity [21] of the same molecule?
A: 100%

Q: What about the MIC50 [22] of the same molecule?
A: 16 µg/mL (≈ 47.8 µM)

Q: And the MIC90 [22]?
A: 64 µg/mL (≈ 191 µM)

Q: And the MIC50 [23]?
A: 0.25 µg/mL (≈ 0.748 µM)

Q: And the MIC90 [23]?
A: 1 µg/mL (≈ 2.99 µM)

Q: What about the MIC50 [24] of the same molecule?
A: 16 µg/mL (≈ 47.8 µM)

Q: What about the MIC90 [24] of the same molecule?
A: 64 µg/mL (≈ 191 µM)

Q: What about the MIC50 [25] of the same molecule?
A: > 128 µg/mL

Q: And the MIC90 [25]?
A: > 128 µg/mL

Q: And the Activity [26]?
A: 95%

Q: And the Activity [27]?
A: 85%

Q: What about the MIC50 [28] of the same molecule?
A: 0.25 µg/mL (≈ 0.748 µM)

Q: And the MIC90 [28]?
A: 1 µg/mL (≈ 2.99 µM)

Q: And the Activity [29]?
A: 11%

Q: What about the Activity [30] of the same molecule?
A: 100%

Q: What about the Activity [31] of the same molecule?
A: 6%

Q: And the Activity [32]?
A: 0%

Q: What about the Activity [33] of the same molecule?
A: 11%

Q: And the Activity [34]?
A: 95%

Q: And the MIC50 [35]?
A: 16 µg/mL (≈ 47.8 µM)

Q: What about the MIC90 [35] of the same molecule?
A: 64 µg/mL (≈ 191 µM)

Q: What about the MIC50 [36] of the same molecule?
A: > 128 µg/mL

Q: And the MIC90 [36]?
A: > 128 µg/mL

Q: What about the Activity [37] of the same molecule?
A: 0%

Q: And the Activity [38]?
A: 100%

Q: And the Activity [39]?
A: 11%

Q: And the MIC [40]?
A: 0.03 µg/mL (≈ 0.0897 µM)

Q: And the MIC50 [40]?
A: 0.03 µg/mL (≈ 0.0897 µM)

Q: And the MIC90 [40]?
A: 1 µg/mL (≈ 2.99 µM)

Q: And the MIC50 [41]?
A: > 128 µg/mL

Q: What about the MIC90 [41] of the same molecule?
A: > 128 µg/mL

Q: What about the Activity [42] of the same molecule?
A: 11%

Q: And the MIC [43]?
A: 0.03 µg/mL (≈ 0.0897 µM)

Q: And the MIC50 [43]?
A: 0.03 µg/mL (≈ 0.0897 µM)

Q: And the MIC90 [43]?
A: 1 µg/mL (≈ 2.99 µM)

Q: And the MIC50 [44]?
A: 16 µg/mL (≈ 47.8 µM)

Q: And the MIC90 [44]?
A: 64 µg/mL (≈ 191 µM)

Q: What about the MIC [45] of the same molecule?
A: 0.03 µg/mL (≈ 0.0897 µM)

Q: What about the MIC50 [45] of the same molecule?
A: 0.03 µg/mL (≈ 0.0897 µM)

Q: And the MIC90 [45]?
A: 1 µg/mL (≈ 2.99 µM)

Q: What about the Activity [46] of the same molecule?
A: 95%

Q: What about the Activity [47] of the same molecule?
A: 85%

Q: What about the MIC [48] of the same molecule?
A: 0.03 µg/mL (≈ 0.0897 µM)

Q: And the MIC50 [48]?
A: 0.03 µg/mL (≈ 0.0897 µM)

Q: And the MIC90 [48]?
A: 1 µg/mL (≈ 2.99 µM)
